Results as given in ChEMBL document CHEMBL4725274 (Bioorg Med Chem Lett, 2020).
Activity calls are given as the source filed them. The rule behind the calls is not given here. Where a SMILES comes first, the peptide text is derived from it. The star is where a group is joined. Stearoyl = CCCCCCCCCCCCCCCCCC(=O)*

Tests used:
[1] = target: Substance-P receptor (Homo sapiens) (UniProt P25103); assay: Binding affinity to NK1R (unknown origin) expressed in HEK293 cells assessed as reduction in cell viability in presence of p53 plasmid at N/P ratio of 0.5 to 3 incubated for 96 hrs by MTT assay; assay type: cell-based
Sequence of Substance-P receptor (Homo sapiens) (P25103 whole entry): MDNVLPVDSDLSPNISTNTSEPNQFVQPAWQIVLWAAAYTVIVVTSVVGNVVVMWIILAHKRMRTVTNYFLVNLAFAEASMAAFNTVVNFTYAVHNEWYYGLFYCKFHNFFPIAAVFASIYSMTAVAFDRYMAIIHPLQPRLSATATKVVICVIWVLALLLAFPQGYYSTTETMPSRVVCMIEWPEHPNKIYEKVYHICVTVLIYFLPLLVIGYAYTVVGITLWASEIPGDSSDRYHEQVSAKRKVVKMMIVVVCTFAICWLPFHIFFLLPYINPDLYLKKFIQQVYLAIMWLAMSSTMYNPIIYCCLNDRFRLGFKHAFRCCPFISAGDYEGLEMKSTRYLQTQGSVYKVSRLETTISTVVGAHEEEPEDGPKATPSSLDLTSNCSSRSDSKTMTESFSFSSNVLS

[2] = target: Substance-P receptor (Homo sapiens) (UniProt P25103); assay: Binding affinity to NK1R (unknown origin) expressed in HEK293 cells assessed as reduction in cell viability in presence of p53 plasmid at N/P ratio of 1 incubated for 96 hrs by MTT assay relative to control; assay type: cell-based
[3] = target: Substance-P receptor (Homo sapiens) (UniProt P25103); assay: Binding affinity to NK1R (unknown origin) expressed in HEK293 cells assessed as reduction in cell viability in presence of p53 plasmid at N/P ratio of 2 incubated for 96 hrs by MTT assay relative to control; assay type: cell-based
HEK293 [4] = assay: Cytotoxicity against HEK293 cells assessed as reduction in cell viability incubated for 96 hrs by MTT assay; assay type: cell-based; details: Homo sapiens, HEK293, 96 h
[5] = Drug uptake in HEK293 cells at 1 uM incubated for 1 hr by flow cytometry analysis; assay type: ADME, cell-based; details: human, hek293, 1 h
[6] = target: Substance-P receptor (Homo sapiens) (UniProt P25103); assay: Binding affinity to NK1R (unknown origin) expressed in HEK293 cells assessed as reduction in cell viability in presence of p53 plasmid at N/P ratio of 3 incubated for 96 hrs by MTT assay relative to control; assay type: cell-based
HEK293 [7] = assay: Activation of luciferase (unknown origin) expressed in HEK293 cells in presence of pGL3 plasmid incubated for 30 mins by luciferase reporter gene assay; assay type: cell-based
[8] = Drug uptake in HEK293 cells at 1 uM incubated for 1 hr by confocal microscopy analysis; assay type: ADME, cell-based; details: human, hek293, 1 h
HEK293 [9] = assay: Cytotoxicity against HEK293 cells assessed as reduction in cell viability in presence of p53 plasmid at N/P ratio of 0.5 to 3 incubated for 96 hrs by MTT assay; assay type: cell-based; details: human, hek293, 96 h

Drug uptake [5]: Active | Drug uptake [8]: Active
SMILES: CCCCCCCCCCCCCCCCCC(=O)N[C@@H](CCCCN)C(=O)N[C@@H](Cc1c[nH]c2ccccc12)C(=O)N[C@@H](CCCCN)C(=O)N[C@@H](CC(C)C)C(=O)N[C@@H](CCC(=O)O)C(=O)N[C@@H](CCCCN)C(=O)N[C@@H](CCCCN)C(=O)N[C@H](C(=O)NCC(=O)N[C@@H](C)C(=O)N[C@H](C(=O)N[C@@H](CC(C)C)C(=O)N[C@H](C(=O)N[C@@H](CS)C(=O)N[C@H](C(=O)N[C@@H](CC(C)C)C(=O)N[C@@H](CCCNC(=N)N)C(=O)N1CCC[C@H]1C(=O)N[C@@H](CCCCN)C(=O)N1CCC[C@H]1C(=O)N[C@@H](CCC(N)=O)C(=O)N[C@@H](CCC(N)=O)C(=O)N[C@@H](Cc1ccccc1)C(=O)N[C@@H](Cc1ccccc1)C(=O)NCC(=O)N[C@@H](CC(C)C)C(=O)N[C@@H](CCSC)C(N)=O)C(C)C)[C@@H](C)CC)C(C)C)[C@@H](C)CC (Stearoyl-KWKLEKKIGAVLICVLRPKPQQFFGLM-NH2)
Activity [1]: Active | Activity [2]: 51.6% | Activity [3]: 66.7% | EC50 (HEK293 [4]): 7.5 µM | Activity [6]: 70.2% | Activity (HEK293 [7]): inactive | Activity (HEK293 [9]): Active
